Data from patent US7947706B2, “Substituted pyrrolopyridines, compositions containing them, manufacturing process therefor and use thereof” (Sanofi-Aventis Deutschland GmbH, priority 2005, dated 2011).

Experiments:
KDR = target: T1, KDR (Homo sapiens, UniProt P35968); assay: KDR substrate phosphorylation test, scintillation technique; type: biochemical; settings: GST-KDR cytoplasmic domain, PLCγ SH2-SH3 substrate, 33P-ATP, 1 hour at 37° C.
T1 construct: The cytoplasmic domain of the human KDR enzyme; GST; made in house; host or cells: SF21 insect cells (baculovirus, pFastBac)
T1 sequence (P35968 786-1356 limits assumed): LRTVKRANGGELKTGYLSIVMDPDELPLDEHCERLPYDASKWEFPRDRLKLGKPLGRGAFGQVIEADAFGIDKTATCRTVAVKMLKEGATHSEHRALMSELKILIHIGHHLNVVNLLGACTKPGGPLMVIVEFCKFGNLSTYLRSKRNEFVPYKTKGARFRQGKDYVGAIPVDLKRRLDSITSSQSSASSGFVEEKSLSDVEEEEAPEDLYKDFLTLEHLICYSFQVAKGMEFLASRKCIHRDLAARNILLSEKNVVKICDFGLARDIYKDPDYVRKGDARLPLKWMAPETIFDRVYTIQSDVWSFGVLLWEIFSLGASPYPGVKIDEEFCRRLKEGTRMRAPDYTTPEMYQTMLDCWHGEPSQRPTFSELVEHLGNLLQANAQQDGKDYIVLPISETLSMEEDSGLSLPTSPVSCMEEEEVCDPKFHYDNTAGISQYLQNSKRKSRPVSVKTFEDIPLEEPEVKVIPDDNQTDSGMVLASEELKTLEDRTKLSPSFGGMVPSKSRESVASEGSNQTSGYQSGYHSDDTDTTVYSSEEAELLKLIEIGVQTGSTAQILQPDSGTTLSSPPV
Description: The inhibitory effect of the compounds is determined in an in vitro test of phosphorylation of substrate with the enzyme KDR via a scintillation technique (96-well plate, NEN).
The cytoplasmic domain of the human KDR enzyme was cloned in the form of a GST fusion in the pFastBac baculovirus expression vector. The protein was expressed in the SF21 cells and purified to about 60% homogeneity.
The KDR kinase activity is measured in 20 mM MOPS, 10 mM MgCl2, 10 mM MnCl2, 1 mM DTT, 2.5 mM EGTA, 10 mM b-glycerophosphate, pH=7.2, in the presence of 10 mM MgCl2, 100 μm Na3VO4, 1 mM NaF. 10 μl of the compound are added to 70 μl of kinase buffer containing 100 ng of KDR enzyme at 4° C. The reaction is initiated by adding 20 μl of solution containing 2 μg of substrate (SH2-SH3 fragment of PLCγ expressed in the form of a GST fusion protein), 2 μCi of γ^33P[ATP] and 2 μm of cold ATP. After incubation for 1 hour at 37° C., the reaction is stopped by adding 1 volume (100 μl) of 200 mM EDTA. The incubation buffer is removed, and the wells are washed three times with 300 μl of PBS. The radioactivity in each well is measured using a Top Count NXT radioactivity counter (Packard).
The background noise is determined by measuring the radioactivity in four different wells containing radioactive ATP and the substrate alone.
A total activity control is measured in four different wells containing all the reagents (γ^33P-[ATP], KDR and substrate PLCγ), but in the absence of compound.
The inhibition of the KDR activity with the compound of the invention is expressed as a percentage of inhibition of the control activity determined in the absence of compound.
Compound SU5614 (Calbiochem) (1 μM) is included in each plate as an inhibition control.

Aurora A = target: T2, Aurora A (Homo sapiens, UniProt O14965); assay: Aurora2 (Aurora-A) enzymatic test, NuMA substrate phosphorylation, radioactivity detection; type: biochemical; settings: 10 nM Aurora2, 500 nM NuMA, 1 μM ATP, 30 minutes, 37° C.; read-out: IC 50 Aurora A
T2 construct: Aurora2: whole recombinant protein comprising an N-terminal histidine tail; His (N); made in house; host or cells: E. coli
T2 sequence (O14965 1-403): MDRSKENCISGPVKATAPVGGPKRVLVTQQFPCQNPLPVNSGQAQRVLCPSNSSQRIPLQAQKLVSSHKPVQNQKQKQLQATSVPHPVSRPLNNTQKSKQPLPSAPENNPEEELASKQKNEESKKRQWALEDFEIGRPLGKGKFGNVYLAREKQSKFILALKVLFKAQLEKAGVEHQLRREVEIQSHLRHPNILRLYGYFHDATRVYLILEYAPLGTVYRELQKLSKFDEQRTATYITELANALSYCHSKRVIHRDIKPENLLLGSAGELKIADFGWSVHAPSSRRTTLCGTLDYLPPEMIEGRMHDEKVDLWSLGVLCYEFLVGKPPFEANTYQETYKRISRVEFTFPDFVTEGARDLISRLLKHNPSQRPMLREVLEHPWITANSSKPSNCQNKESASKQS
Description: (§1) The inhibitory effect of compounds with respect to the kinases Aurora1 and Aurora2 is determined by means of an enzymatic test using radioactivity detection.
(§2) The kinase activity of Aurora1 and Aurora2 is evaluated via the phosphorylation of the substrate Numa-histidine in the presence of radiolabelled ATP ([^33P]ATP) using 96-well Flashplate plates in which the nickel chelate is bound to the surface of the microplate. The amount of ^33P phosphate incorporated into the NuMA substrate is proportional to the activity of the enzyme Aurora1 or Aurora2.
Aurora2: whole recombinant protein comprising an N-terminal histidine tail, was expressed in E. coli and purified to more than 82%.
(§3) NuMA (nuclear protein that combines with the mitotic apparatus): 424-amino acid fragment, expressed in E. coli, the N-terminal end of which has been labelled with histidine, and used as substrate for the two Aurora enzymes.
(§4) The microplates used are 96-well Flash-Plate plates, nickel chelate (Perkin-Elmer, model SMP107).
(§5) The products to be evaluated are incubated in a reaction volume of 100 μL per well, in the presence of 10 nM of Aurora1 or Aurora2, 500 nM of NuMA substrate in a buffer composed of 50 mM Tris/HCl (pH 7.5), 50 mM NaCl, 5 mM MgCl2 (Aurora-B) or 10 mM MgCl2 (Aurora-A) and 1 mM DTT, at 37° C.
(§6) 80 μL of enzyme/substrate incubation buffer are distributed in each well, followed by 10 μL of product to be evaluated, at variable concentrations. The reaction is initiated by adding 1 μM final of ATP containing 0.2 μCi of [^33P]ATP (10 μL). After incubating for 30 minutes, the reaction is quenched by simple removal of the reaction buffer and each well is washed twice with 300 μl of Tris/HCl buffer. The radioactivity is then measured in each well using a Packard, Top-Count model scintillation machine.
(§7) The control enzymatic activity of Aurora is expressed by the number of counts per minute obtained over 30 minutes after subtracting the background noise (reaction mixture containing no enzyme). The evaluation of the various test products is expressed as a percentage of inhibition of the Aurora activity relative to the control.

Aurora B = target: T3, Aurora B (Homo sapiens, UniProt Q96GD4); assay: Aurora1 (Aurora-B/INCENP-C3 complex) enzymatic test, NuMA substrate phosphorylation, radioactivity detection; type: biochemical; settings: 10 nM Aurora1 (Aurora-B/INCENP-C3), 500 nM NuMA, 1 μM ATP, 30 minutes, 37° C.; read-out: IC 50 Aurora B
T3 construct: His (N); made in house
T3 sequence (Q96GD4 whole entry): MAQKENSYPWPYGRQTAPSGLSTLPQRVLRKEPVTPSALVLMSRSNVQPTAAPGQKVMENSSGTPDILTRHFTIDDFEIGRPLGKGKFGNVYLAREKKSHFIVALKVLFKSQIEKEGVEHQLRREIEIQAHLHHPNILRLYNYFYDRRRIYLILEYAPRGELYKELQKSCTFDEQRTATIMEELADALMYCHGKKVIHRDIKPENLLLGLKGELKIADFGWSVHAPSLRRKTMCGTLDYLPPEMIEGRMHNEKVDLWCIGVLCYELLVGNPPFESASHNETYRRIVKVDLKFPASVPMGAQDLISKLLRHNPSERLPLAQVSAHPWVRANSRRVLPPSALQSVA
T3 sequence (Q9NQS7 826-900 partner limits assumed): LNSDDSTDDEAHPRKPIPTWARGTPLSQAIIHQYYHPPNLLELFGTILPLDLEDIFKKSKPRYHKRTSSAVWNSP
Description: as §1, §2
Aurora1: Aurora-B/INCENP-C3 recombinant complex, purified to about 50%, the N-terminal end of Aurora-B of which has been labelled with histidine.
as §3, §4, §5, §6, §7

IC50 (KDR) [nM]	IC50 (Aurora A) [nM]	melting point [°C]	IC50 (Aurora B) [nM]	SMILES
29	172	286	138	NC(=O)c1[nH]c2cnccc2c1-c1ccc(NC(=O)Nc2cc(C(F)(F)F)ccc2F)cc1 [Example 1, 3-{4-[3-(2-Fluoro-5-trifluoromethylphenyl)ureido]phenyl}-1H-pyrrolo[2,3-c]pyridine-2-carboxamide]
150	222	227	196	COc1ccc(C)cc1NC(=O)Nc1ccc(-c2c(C(N)=O)[nH]c3cnccc23)cc1 [Example 2, 3-{4-[3-(2-Methoxy-5-methylphenyl)ureido]phenyl}-1H-pyrrolo[2,3-c]pyridine-2-carboxamide]
258	131	222	67	Cc1ccc(F)c(NC(=O)Nc2ccc(-c3c(C(N)=O)[nH]c4cnccc34)cc2)c1.O=C(O)C(F)(F)F [Example 5, 3-{4-[3-(2-Fluoro-5-methylphenyl)ureido]phenyl}-1H-pyrrolo[2,3-c]pyridine-2-carboxamide trifluoroacetate]
34	553	232	133	NC(=O)c1[nH]c2ncccc2c1-c1ccc(NC(=O)Nc2cc(C(F)(F)F)ccc2F)cc1 [Example 7, 3-{4-[3-(2-Fluoro-5-trifluoromethylphenyl)ureido]phenyl}-1H-pyrrolo[2,3-b]pyridine-2-carboxamide]
